Laboratory results published in patent publication US11999697B2, “Methods and compositions for inhibition of dihydroorotate dehydrogenase” (OHIO STATE INNOVATION FOUNDATION, priority 2018, dated 2024).
Read-outs that look alike come from different tables or passages of the source. One block for each molecule: values may come before it.

Assays:
MV4-11 = assay: MTS cell proliferation assay, MV4-11; type: cell-based; conditions: for IC50: Homo sapiens, MV4-11, MTS
OCI-AML3 = assay: MTS cell proliferation assay, OCI-AML3; type: cell-based; conditions: Homo sapiens
Experimental: (§1) Triplicate wells were set up for each condition.
(§2) The assays were carried out in a blinded fashion.

MOLM-13 = assay: MTS cell proliferation assay, MOLM-13; type: cell-based; conditions: Homo sapiens, 96 hours
Experimental: as §1, §2

THP1 = assay: MTS cell proliferation assay, THP1; type: cell-based; conditions: Homo sapiens, THP-1, 96 hours
Experimental: as §1, §2

HL-60 = assay: MTS cell proliferation assay, HL-60; type: cell-based; conditions: Homo sapiens, 96 hours
Experimental: as §1, §2

DHODH = target: T1, DHODH (Homo sapiens, UniProt Q02127); assay: DHODH enzymatic assay (DCIP reduction); type: biochemical; conditions: for DHODH inhibition, % inhibition: compound concentration not given; for IC50: range in parentheses, read-out: DHODH inhibition, IC50
T1 construct: made in house
Experimental: DHODH Enzymatic Assay: DHODH activity was determined at 25° C. following the reduction of 2,6-dichloroindophenol sodium salt (DCIP) at 600 nm (ε=18 800 M^−1 cm^−1) on a spectrophotometer. The reaction medium used contained 50 mM Tris-HCl, pH 8.0, 0.1% Triton X-100, 0.1 mM LDHO, 0.025 mM CoQ1, and 0.06 mM DCIP. The reaction was started by addition of the enzyme. The inhibitory potency of the compounds was evaluated by measuring the initial velocity of the reaction either in the absence or in the presence of the compounds at the indicated concentrations. The DHODH enzyme used was the recombinant human enzyme prepared as previously described (Helene Munier-Lehmann, et al., J. Med. Chem. 2015, 58:860-877).

[1] = OCI-AML-3, 96 hour, Table 6, read-out: 96 hour IC50 (nM) in OCI-AML-3 cell line
[2] = 96 hours, read-out: IC50 (μM) at 96 hours, MV4-11
[3] = OCI-AML-3, 96 hours, read-out: IC50 (μM) at 96 hours, OCI-AML3
[4] = 96 hour, Table 7, read-out: 96 hour IC50 (nM) in MV-411 cell line

T1 sequence (Q02127 whole entry): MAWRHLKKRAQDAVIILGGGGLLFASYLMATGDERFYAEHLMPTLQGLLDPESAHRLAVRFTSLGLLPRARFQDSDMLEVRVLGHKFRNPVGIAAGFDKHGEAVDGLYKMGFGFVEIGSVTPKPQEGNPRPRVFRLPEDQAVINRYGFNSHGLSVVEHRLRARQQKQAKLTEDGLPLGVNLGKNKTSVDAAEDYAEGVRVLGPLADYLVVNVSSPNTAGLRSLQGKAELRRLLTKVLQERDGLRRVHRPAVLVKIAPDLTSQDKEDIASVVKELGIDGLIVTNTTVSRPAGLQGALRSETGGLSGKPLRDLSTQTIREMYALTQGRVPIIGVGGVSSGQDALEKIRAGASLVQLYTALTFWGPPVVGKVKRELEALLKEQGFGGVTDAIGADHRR

IC50 (OCI-AML3; [1]): 314 nM
Compound: Cc1c(-c2ccc(-c3ccccc3F)cc2)nc2ccc(F)cc2c1C(=O)O [Brequinar, 6-fluoro-2-(2′-fluoro-1,1′-biphenyl-4-yl)-3-methyl-4-quinolinecarboxylic acid, reference compound]
rescue of cytotoxic effects by uridine (MV4-11; 0.25 or 0.5 μM compound, uridine 0 to 200 μM, 96 hours): rescued by growth in the presence of uridine

IC50 (OCI-AML3; [1]): 76.1 nM
Compound: CCCCCCOc1ccc(-c2ccc(-c3cc(C(=O)O)c4cc(F)ccc4n3)cc2)cc1 [Cpd30, 6-fluoro-2-(4′-(hexyloxy)-[1,1′-biphenyl]-4-yl)quinoline-4-carboxylic acid]

IC50 (MOLM-13): 8.63 µM
IC50 (MV4-11; [2]): 14 µM
IC50 (THP1): 21.4 µM
IC50 (HL-60): 9.48 µM
IC50 (OCI-AML3; [3]): 11200 nM
Compound: Cc1c(-c2ccc(-c3ccc(F)cc3F)cc2)nc2c(F)cccc2c1C(=O)O [Cpd14, 2-(2′,4′-difluoro-[1,1′-biphenyl]-4-yl)-8-fluoro-3-methylquinoline-4-carboxylic acid]

IC50 (MOLM-13): 6.76 µM
IC50 (MV4-11; [2]): 7.54 µM
IC50 (THP1): 11.6 µM
IC50 (HL-60): 3.57 µM
IC50 (OCI-AML3; [3]): 4990 nM
Compound: COc1ccc(-c2ccc(-c3cc(C(=O)O)c4cccc(F)c4n3)cc2)cc1 [Cpd8, 8-fluoro-2-(4′-methoxy-[1,1′-biphenyl]-4-yl)quinoline-4-carboxylic acid]

DHODH inhibition, % inhibition (DHODH): 95%
IC50 (DHODH): 0.099 µM
IC50 (MOLM-13): 3.02 µM
IC50 (MV4-11; [2]): 6.96 µM
IC50 (THP1): 7.84 µM
IC50 (HL-60): 20.9 µM
IC50 (OCI-AML3; [3]): 3370 nM
Compound: COc1ccc(-c2ccc(-c3cc(C(=O)O)c4cc(Cl)ccc4n3)cc2)cc1 [Cpd5, 6-chloro-2-(4′-methoxy-[1,1′-biphenyl]-4-yl)quinoline-4-carboxylic acid]

IC50 (OCI-AML3; [1]): 175 nM
Compound: CCCCCCCCOc1ccc(-c2ccc(-c3cc(C(=O)O)c4cc(F)ccc4n3)cc2)cc1 [Cpd31, 6-fluoro-2-(4′-(octyloxy)-[1,1′-biphenyl]-4-yl)quinoline-4-carboxylic acid]

IC50 (OCI-AML3; [1]): 1060 nM
Compound: COCc1ccc(-c2ccc(-c3cc(C(=O)O)c4cc(F)ccc4n3)cc2)cc1 [Cpd38, 6-fluoro-2-(4′-(methoxymethyl)-[1,1′-biphenyl]-4-yl)quinoline-4-carboxylic acid]

IC50 (OCI-AML3; [1]): 67.6 nM
Compound: CC(C)Oc1ccc(-c2ccc(-c3cc(C(=O)O)c4cc(F)ccc4n3)cc2)cc1 [Cpd25, 6-fluoro-2-(4′-isopropoxy-[1,1′-biphenyl]-4-yl)quinoline-4-carboxylic acid]

IC50 (OCI-AML3; [1]): 637 nM
Compound: CCOc1ccccc1-c1ccc(-c2cc(C(=O)O)c3cc(F)ccc3n2)cc1 [Cpd27, 2-(2′-ethoxy-[1,1′-biphenyl]-4-yl)-6-fluoroquinoline-4-carboxylic acid]

Compound: CCCCOc1ccc(-c2ccc(-c3cc(C(=O)O)c4cc(F)ccc4n3)cc2)cc1 [Cpd22, 2-(4′-butoxy-[1,1′-biphenyl]-4-yl)-6-fluoroquinoline-4-carboxylic acid]
IC50 (MV4-11; [4]): 0.036 µM
IC50 (OCI-AML3; [1]): 155 nM

IC50 (MV4-11; [4]): 0.06 µM
Compound: CCCOc1ccc(-c2ccc(-c3cc(C(=O)O)c4cc(F)ccc4n3)cc2)cc1 [Cpd21, 6-fluoro-2-(4′-propoxy-[1,1′-biphenyl]-4-yl)quinoline-4-carboxylic acid]

IC50 (OCI-AML3; [1]): 330 nM
Compound: CCOc1ccc(-c2ccc(-c3cc(C(=O)O)c4cc(C(F)(F)F)ccc4n3)cc2)cc1 [Cpd36, 2-(4′-ethoxy-[1,1′-biphenyl]-4-yl)-6-(trifluoromethyl)quinoline-4-carboxylic acid]

IC50 (MOLM-13): 0.48 µM
IC50 (MV4-11; [2]): 0.49 µM
IC50 (THP1): 1 µM
IC50 (HL-60): 0.23 µM
IC50 (OCI-AML3; [3]): 400 nM
Compound: Cc1c(-c2ccc(-c3ccccc3F)cc2)nc2ccc(F)cc2c1C(=O)O [BQR•Na, reference compound]

IC50 (OCI-AML3; [1]): 96.4 nM
Compound: COCc1ccccc1-c1ccc(-c2cc(C(=O)O)c3cc(F)ccc3n2)cc1 [Cpd39, 6-fluoro-2-(2'-(methoxymethyl)-[1,1′-biphenyl]-4-yl) quinoline-4-carboxylic acid]

IC50 (OCI-AML3; [1]): 72.9 nM
Compound: CCCCCOc1ccc(-c2ccc(-c3cc(C(=O)O)c4cc(F)ccc4n3)cc2)cc1 [Cpd29, 6-fluoro-2-(4′-(pentyloxy)-[1,1′-biphenyl]-4-yl)quinoline-4-carboxylic acid]

IC50 (MV4-11; [4]): 0.067 µM
Compound: O=C(O)c1cc(-c2ccc(-c3ccc(Oc4ccccc4)cc3)cc2)nc2ccc(F)cc12 [Cpd40, 6-fluoro-2-(4′-phenoxy-[1,1′-biphenyl]-4-yl)quinoline-4-carboxylic acid]

IC50 (MV4-11; [4]): 0.018 µM
IC50 (OCI-AML3; [1]): 90.5 nM
Compound: CCCCCCCOc1ccc(-c2ccc(-c3cc(C(=O)O)c4cc(F)ccc4n3)cc2)cc1 [Cpd23, 6-fluoro-2-(4′-(heptyloxy)-[1,1′-biphenyl]-4-yl)quinoline-4-carboxylic acid]

Compound: CC(C)(C)Oc1ccc(-c2ccc(-c3cc(C(=O)O)c4cc(F)ccc4n3)cc2)cc1 [Cpd32, 2-(4′-(tert-butoxy)-[1,1′-biphenyl]-4-yl)-6-fluoroquinoline-4-carboxylic acid]
IC50 (OCI-AML3; [1]): 50.3 nM

IC50 (OCI-AML3; [1]): 864 nM
Compound: COCc1cccc(-c2ccc(-c3cc(C(=O)O)c4cc(F)ccc4n3)cc2)c1 [Cpd37, 6-fluoro-2-(3′-(methoxymethyl)-[1,1′-biphenyl]-4-yl)quinoline-4-carboxylic acid]

IC50 (OCI-AML3; [1]): 87.7 nM
Compound: CCOc1ccc(-c2ccc(-c3cc(C(=O)O)c4cc(F)ccc4n3)cc2)c(F)c1 [Cpd35, 2-(4′-ethoxy-2′-fluoro-[1,1′-biphenyl]-4-yl)-6-fluoroquinoline-4-carboxylic acid]

IC50 (MOLM-13): 6.76 µM
IC50 (MV4-11; [2]): 6.86 µM
IC50 (THP1): 9.34 µM
IC50 (HL-60): 2.4 µM
IC50 (OCI-AML3; [3]): 4010 nM
Compound: Cc1c(-c2ccc(-c3ccc(F)cc3)cc2)nc2ccc(F)cc2c1C(=O)O [Cpd18, 6-fluoro-2-(4′-fluoro-[1,1′-biphenyl]-4-yl)-3-methylquinoline-4-carboxylic acid]

DHODH inhibition, % inhibition (DHODH): 99%
IC50 (DHODH): 0.076 µM
IC50 (MOLM-13): 6.91 µM
IC50 (MV4-11; [2]): 6.48 µM
IC50 (THP1): 10.4 µM
IC50 (HL-60): 3 µM
IC50 (OCI-AML3; [3]): 6250 nM
Compound: O=C(O)c1cc(-c2ccc(-c3ccc(F)cc3)cc2)nc2ccc(Cl)cc12 [Cpd6, 6-chloro-2-(4′-fluoro-[1,1′-biphenyl]-4-yl)quinoline-4-carboxylic acid]

IC50 (OCI-AML3; [1]): 49.5 nM
Compound: O=C(O)c1cc(-c2ccc(-c3ccccc3F)cc2)nc2ccc(F)cc12 [Cpd24, 6-fluoro-2-(2'-fluoro-[1,1′-biphenyl]-4-yl)quinoline-4-carboxylic acid]

DHODH inhibition, % inhibition (DHODH): 8%
Compound: O=C(O)c1cc(-c2ccc(-c3ccc(C(F)(F)F)cc3)cc2)nc2ccc(-c3ccc(F)cc3)cc12 [Cpd17, 6-(4-fluorophenyl)-2-(4′-(trifluoromethyl)-[1,1′-biphenyl]-4-yl)quinoline-4-carboxylic acid]

Compound: CC(C)COc1ccc(-c2ccc(-c3cc(C(=O)O)c4cc(F)ccc4n3)cc2)cc1 [Cpd26, 6-fluoro-2-(4′-isobutoxy-[1,1′-biphenyl]-4-yl)quinoline-4-carboxylic acid]
IC50 (OCI-AML3; [1]): 89.3 nM

IC50 (MOLM-13): 3.06 µM
IC50 (OCI-AML3; [3]): 90 nM
Compound: CC1=C(/C=C/C(C)=C/C=C/C(C)=C/C(=O)O)C(C)(C)CCC1 [ATRA, all-trans-retinoic acid, reference compound]

IC50 (OCI-AML3; [1]): 74.6 nM
Compound: CC(C)CCOc1ccc(-c2ccc(-c3cc(C(=O)O)c4cc(F)ccc4n3)cc2)cc1 [Cpd33, 6-fluoro-2-(4′-(isopentyloxy)-[1,1′-biphenyl]-4-yl)quinoline-4-carboxylic acid]

IC50 (MOLM-13): 3.42 µM
IC50 (MV4-11; [2]): 6.23 µM
IC50 (THP1): 6.7 µM
IC50 (HL-60): 1.69 µM
IC50 (OCI-AML3; [3]): 2900 nM
Compound: CCOc1ccc(-c2ccc(-c3cc(C(=O)O)c4cccc(F)c4n3)cc2)cc1 [Cpd16, 2-(4′-ethoxy-[1,1′-biphenyl]-4-yl)-8-fluoroquinoline-4-carboxylic acid]

IC50 (MV4-11; [4]): 0.69 µM
Compound: COc1ccc(-c2ccc(-c3cc(C(=O)O)c4cc(F)ccc4n3)cc2)cc1 [Cpd20, 6-fluoro-2-(4′-methoxy-[1,1′-biphenyl]-4-yl)quinoline-4-carboxylic acid]

IC50 (OCI-AML3; [1]): 20.9 nM
Compound: CCOc1cccc(-c2ccc(-c3cc(C(=O)O)c4cc(F)ccc4n3)cc2)c1 [Cpd28, 2-(3′-ethoxy-[1,1′-biphenyl]-4-yl)-6-fluoroquinoline-4-carboxylic acid]
